“Also recorded” adds a separate entry of the source.
What was measured:
[1] = target: T1, asc-1 (Rattus norvegicus, UniProt P63116); experiment: sodium-independent [3H]D-serine transport into rat forebrain synaptosomes; type: biochemical; details: inhibition of [3H]D-serine transport, rat brain synaptosomes; means of at least two determinations
T1 construct: from tissue; host or cells: rat forebrain P2 (synaptosome) fraction
T1 sequence (P63116 1-530): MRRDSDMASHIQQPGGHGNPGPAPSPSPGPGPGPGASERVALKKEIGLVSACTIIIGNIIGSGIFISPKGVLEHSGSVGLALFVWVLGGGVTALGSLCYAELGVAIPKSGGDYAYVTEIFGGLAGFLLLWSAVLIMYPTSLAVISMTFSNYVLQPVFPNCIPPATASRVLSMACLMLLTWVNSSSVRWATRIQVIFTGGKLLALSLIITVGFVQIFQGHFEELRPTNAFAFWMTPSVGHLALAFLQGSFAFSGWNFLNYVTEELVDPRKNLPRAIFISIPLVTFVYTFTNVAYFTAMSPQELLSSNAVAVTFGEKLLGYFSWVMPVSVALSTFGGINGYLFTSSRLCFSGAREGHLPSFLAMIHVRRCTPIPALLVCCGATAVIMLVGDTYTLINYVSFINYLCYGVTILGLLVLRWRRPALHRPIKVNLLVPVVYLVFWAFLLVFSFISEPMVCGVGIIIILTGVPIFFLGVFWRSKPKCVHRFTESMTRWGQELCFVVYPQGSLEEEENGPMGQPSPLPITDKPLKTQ
T1 sequence (Q794F9 1-527 partner): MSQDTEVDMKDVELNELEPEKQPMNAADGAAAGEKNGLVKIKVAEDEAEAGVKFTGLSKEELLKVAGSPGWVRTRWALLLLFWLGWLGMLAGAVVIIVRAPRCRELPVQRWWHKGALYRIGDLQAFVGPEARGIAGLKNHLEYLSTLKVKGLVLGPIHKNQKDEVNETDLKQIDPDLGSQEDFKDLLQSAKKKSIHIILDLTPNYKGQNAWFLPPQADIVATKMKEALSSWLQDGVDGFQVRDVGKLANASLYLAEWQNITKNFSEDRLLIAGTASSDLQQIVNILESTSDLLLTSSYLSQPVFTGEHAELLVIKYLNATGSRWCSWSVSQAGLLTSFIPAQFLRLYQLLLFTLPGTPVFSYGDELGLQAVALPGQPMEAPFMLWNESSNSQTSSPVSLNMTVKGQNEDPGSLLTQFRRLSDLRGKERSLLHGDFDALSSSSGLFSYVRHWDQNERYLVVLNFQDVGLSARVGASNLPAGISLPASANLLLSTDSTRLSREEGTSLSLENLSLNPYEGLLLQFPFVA
Description: Under the assay conditions used, the sodium-independent transport of D-serine by rodent forebrain synaptosomes is mediated by asc-1 (Rutter et al., 2007), and the sodium-dependent transport of D-serine into astrocytes in culture is mediated by an ASCT transporter, ASCT2 according to the literature (Ribeiro et al., 2002).
Synaptosome assays: a P2 fraction of rat forebrain was prepared and assayed immediately. Aliquots of the P2 preparation (approx. 1 mg of original tissue weight) were incubated in sodium-free assay buffer (CholineCl: 128 mM, KCl: 3.5 mM; KH2PO4: 1.5 mM; MgCl2: 1 mM; CaCl2: 1 mM; glucose: 10 mM; Tris-acetate buffer: 10 mM, pH7.4) containing [^3H]D-serine (final concentration of 50 nM) and test compounds in duplicate for 4 mins at room temperature. The synaptosomes containing radiolabel were collected by filtration onto Whatman GF/C filters, and washed twice with ice cold assay buffer. Filters were solubilized in scintillation fluid and radioactivity determined in a beta counter. IC50 values were determined as described for the cell-based assays above.

[2] = system: rat hippocampal astrocytes; experiment: [3H]D-serine transport into primary cultures of rat hippocampal astrocytes; type: cell-based; details: for IC50: Astrocyte, inhibition of [3H]D-serine transport, rat hippocampal astrocytes, means of at least two determinations; for fraction of D-serine transport represented by the component for which the compound shows higher affinity: two-component inhibition curves in astrocytes
[3] = system: amphetamine-induced hyperlocomotion in mice; experiment: amphetamine induced hyperactivity; type: in vivo; details: for effect on amphetamine-induced hyperactivity/hyperlocomotion: systemic administration, amphetamine 2 mg/kg s.c.
Description: C57B/6 male mice (n=5-10/group) were placed in an open field apparatus and their activity was measured for 30 minutes. At 30 minutes, they received a vehicle injection or injection of test compound followed by an injection of amphetamine (2 mg/kg, s.c.) at minute 45. Their activity levels were subsequently measured for another 1 hour post-injection. Total activity for each 5 minute bin (21 total bins) was added to establish the activity curve over the 105 minute testing.

[4] = target: T2, human ASCT2 (Homo sapiens, UniProt Q15758); experiment: transport into HEK cells expressing ASCT2; type: cell-based; details: [3H]L-serine transport, HEK cells
T2 construct: expressed in transfected cells; host or cells: HEK (human embryonic kidney) cells
T2 sequence (Q15758 1-541): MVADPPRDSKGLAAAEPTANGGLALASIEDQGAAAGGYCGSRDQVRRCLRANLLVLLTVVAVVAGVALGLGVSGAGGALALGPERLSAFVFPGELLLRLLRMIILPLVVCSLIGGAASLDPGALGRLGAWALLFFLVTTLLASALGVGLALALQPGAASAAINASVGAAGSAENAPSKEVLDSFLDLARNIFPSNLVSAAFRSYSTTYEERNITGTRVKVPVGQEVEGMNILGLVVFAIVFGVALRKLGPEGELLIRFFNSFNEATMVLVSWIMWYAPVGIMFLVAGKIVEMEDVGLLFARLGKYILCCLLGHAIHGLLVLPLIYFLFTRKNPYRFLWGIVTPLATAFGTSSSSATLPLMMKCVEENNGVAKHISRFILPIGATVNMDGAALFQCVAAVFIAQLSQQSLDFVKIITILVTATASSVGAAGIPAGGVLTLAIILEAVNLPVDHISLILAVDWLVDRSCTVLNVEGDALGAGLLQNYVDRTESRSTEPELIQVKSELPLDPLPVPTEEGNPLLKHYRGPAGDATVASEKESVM
Description: (§1) Cell-based assays: the transport of [^3H]L- or D-serine was measured in primary cultures of rat hippocampal astrocytes or in human embryonic kidney (HEK) cells expressing ASCT transporter sub-types. For the astrocyte assays, cells were plated on either 24- or 96-well plates at a density of 50,000 cells per well. For the HEK assays, cells were plated on coated 96-well plates at a density of 80,000 cells/well. Assays were conducted in duplicate at room temperature in assay buffer consisting of: NaCl: 150 mM, KCl: 2 mM; MgCl2: 1 mM; CaCl2: 1 mM; HEPES: Tris buffer: 10 mM, pH7.4. To assess the sodium-dependence of transport, NaCl was replaced in the assay buffer by equimolar choline chloride. Following aspiration of growth medium and 2 washes with assay buffer, cells were incubated with [^3H]L- or D-serine at a final concentration of 1 μM for 5 min (astrocytes) or 1 min (HEK cells), after which the incubation medium was aspirated and the cells washed twice with ice-cold assay buffer. Cells containing radiolabel were solubilized in 100 μl of 1% Triton-X100 and an aliquot counted in a beta counter. IC50 values were determined over a range of at least 6 concentrations and derived from curve-fitting algorithms available in GraphPad Prism 4.

[5] = system: ASCT2; details: Utsunomiya-Tate 1996; Broer 1999; Torres-Zamorano 1998; cited from earlier work
[6] = target: T3, human ASCT1 (Homo sapiens, UniProt P43007); experiment: transport into HEK cells expressing ASCT1; type: cell-based; details: [3H]L-serine transport, HEK cells
T3 construct: expressed in transfected cells; host or cells: HEK (human embryonic kidney) cells
T3 sequence (P43007 1-532): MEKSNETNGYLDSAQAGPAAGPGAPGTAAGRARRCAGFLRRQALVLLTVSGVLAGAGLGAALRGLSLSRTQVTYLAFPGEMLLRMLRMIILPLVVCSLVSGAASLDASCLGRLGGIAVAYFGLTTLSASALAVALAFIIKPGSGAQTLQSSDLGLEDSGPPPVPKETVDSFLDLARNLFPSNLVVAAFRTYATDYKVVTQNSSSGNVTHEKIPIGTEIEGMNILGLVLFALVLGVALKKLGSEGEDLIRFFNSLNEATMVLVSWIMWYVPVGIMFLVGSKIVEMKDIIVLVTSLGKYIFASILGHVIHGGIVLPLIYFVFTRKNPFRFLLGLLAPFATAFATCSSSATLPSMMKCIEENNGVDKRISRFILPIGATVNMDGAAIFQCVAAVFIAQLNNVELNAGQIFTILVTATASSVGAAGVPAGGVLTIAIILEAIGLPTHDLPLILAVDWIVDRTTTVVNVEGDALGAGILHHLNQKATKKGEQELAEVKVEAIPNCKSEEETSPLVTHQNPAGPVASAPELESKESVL
Description: as §1

[7] = system: LTP in the rat hippocampal slice; experiment: LTP in the rat hippocampal slice preparation; details: 100 μM

Work on `NC(=O)C[C@H](N)C(=O)O` [L-asparagine] yielded an IC50 [1] of 668 µM.
For `N[C@H](C(=O)O)c1ccc(F)cc1` [L-4-fluorophenylglycine], the IC50 [2] was 27.9 µM, the IC50 [1] was 258 µM and the “effect on amphetamine-induced hyperlocomotion at 0.3 mg/kg ip” value ([3]; 0.3 mg/kg ip) was “significant effect”. The “effect on amphetamine-induced hyperactivity/hyperlocomotion” value [3] was “potent dose-dependent inhibitor”.
With `N[C@@H](CCC(=O)OCc1ccccc1)C(=O)O` [L-glutamate-γ-benzyl ester] the IC50 [2] was 3000 µM and the IC50 [1] was 62 µM.
Molecule `NC(C(=O)O)c1ccccc1F` (racemic) [DL-2-fluorophenylglycine] has an IC50 [2] of 1570 µM and an IC50 [1] of 348 µM.
For `O=C(O)[C@@H]1C[C@@H](Cc2ccc(Cl)cc2Cl)CN1` [R-gamma-2,4-dichlorobenzyl-L-proline], the “effect on amphetamine-induced hyperactivity/hyperlocomotion” value [3] was “effective”.
For `N[C@@H](CSCc1ccccc1)C(=O)O` [S-benzyl-L-cysteine], the IC50 [1] was 86 µM.
With `NC(=O)CC[C@H](N)C(=O)O` [L-glutamine] the IC50 [2] was 1640 µM, the “fraction of D-serine transport represented by the component for which the compound shows higher affinity” value [2] was “approximately 40%” and the IC50 [1] was 943 µM. The “selectivity for ASCT2 over ASCT1” value [4] was “showed selectivity towards ASCT2; also recorded: selective for ASCT2” and the “affinity for ASCT2 reported in the literature” value [5] was 23 to 70 µM.
With `O=C(O)[C@@H]1C[C@@H](O)CN1` [L-trans-4-hydroxyproline] the IC50 [2] was 38.9 µM, the “fraction of D-serine transport represented by the component for which the compound shows higher affinity” value [2] was “approximately 60%” and the IC50 [1] was greater than 10000 µM. For the same molecule, the “selectivity for ASCT1 over ASCT2” value ([6]; listed as L-t-4OHPro) was “showed selectivity towards ASCT1” and the “selectivity for ASCT1 over ASCT2” value ([6]; listed as L-trans-4OHPro) was “selective for ASCT1”.
Work on `N[C@@H](CO)C(=O)O` [L-serine] yielded an IC50 [2] of 57.9 µM and an IC50 [1] of 9.6 µM.
In the case of `N[C@@H](CCC(=O)Nc1ccc([N+](=O)[O-])cc1)C(=O)O` [L-GPNA, L-gamma-glutamyl-4-nitroanilide], the IC50 [1] is reported as 453 µM and the “effect on LTP in the rat hippocampal slice” value [7] is reported as “enhance LTP”.
`N[C@@H](CSc1ccccc1)C(=O)O` [S-phenyl-L-cysteine] showed an IC50 [2] of 597 µM and an IC50 [1] of 29.3 µM.
